Broadly, the inhibition is the change of the read-out against control, counted positive when it falls.

For one experiment, the target named is T1, Sigma σ1 (Homo sapiens, UniProt Q99720).
T1 construct: purchased Eurofins Panlabs Discovery Services (Taiwan)
As to the kind of experiment: off-target screen panel. As to conditions: Human Jurkat cells, [^3H]Haloperidol. In kind it is binding.

Experiment [1] deals with PDE7. Nature of the experiment: In vitro autoradiography of rat brain sections with [^11C]MTP38. It is filed as binding, Sprague-Dawley rats. As to conditions: [^11C]MTP38 2 nM, unlabeled MTP38 10 μM, MTP-X 4 μM, MT-3014 40 nM. On the procedure:
(§1) In vitro autoradiography was performed using 20-μm-thick fresh-frozen brain sections derived from Sprague-Dawley rats and rhesus monkeys. The sections were preincubated for 10 min in 50 mM Tris-HCl buffer (pH 7.4) at room temperature. These samples were then incubated for 60 min at room temperature in fresh buffer containing [^11C]MTP38 (2 nM) with or without unlabeled MTP38 (10 μM), MTP-X (4 μM), or MT-3014 (40 nM). The concentrations of MTP-X and MT-3014 were more than 400-fold of reported IC50 values of these agents. After the incubation, the brain sections were immersed twice in cold buffer for 3 min, dipped in cold distilled water for 10 s, and dried with warm airflow. Then the sections were contacted with imaging plates (BAS-MS2025, Fujifilm, Tokyo, Japan) for 60 min. The imaging plates were scanned with an imaging plate reader (BAS5000, Fujifilm, Tokyo, Japan), and the images were analyzed with the MultiGuage software (ver. 3.0, Fujifilm, Tokyo, Japan).

In a further experiment the target is T2, Calcium Channel N-Type (Rattus norvegicus, UniProt Q02294).
T2 construct: purchased Eurofins Panlabs Discovery Services (Taiwan)
T2 sequence (Q02294 whole entry): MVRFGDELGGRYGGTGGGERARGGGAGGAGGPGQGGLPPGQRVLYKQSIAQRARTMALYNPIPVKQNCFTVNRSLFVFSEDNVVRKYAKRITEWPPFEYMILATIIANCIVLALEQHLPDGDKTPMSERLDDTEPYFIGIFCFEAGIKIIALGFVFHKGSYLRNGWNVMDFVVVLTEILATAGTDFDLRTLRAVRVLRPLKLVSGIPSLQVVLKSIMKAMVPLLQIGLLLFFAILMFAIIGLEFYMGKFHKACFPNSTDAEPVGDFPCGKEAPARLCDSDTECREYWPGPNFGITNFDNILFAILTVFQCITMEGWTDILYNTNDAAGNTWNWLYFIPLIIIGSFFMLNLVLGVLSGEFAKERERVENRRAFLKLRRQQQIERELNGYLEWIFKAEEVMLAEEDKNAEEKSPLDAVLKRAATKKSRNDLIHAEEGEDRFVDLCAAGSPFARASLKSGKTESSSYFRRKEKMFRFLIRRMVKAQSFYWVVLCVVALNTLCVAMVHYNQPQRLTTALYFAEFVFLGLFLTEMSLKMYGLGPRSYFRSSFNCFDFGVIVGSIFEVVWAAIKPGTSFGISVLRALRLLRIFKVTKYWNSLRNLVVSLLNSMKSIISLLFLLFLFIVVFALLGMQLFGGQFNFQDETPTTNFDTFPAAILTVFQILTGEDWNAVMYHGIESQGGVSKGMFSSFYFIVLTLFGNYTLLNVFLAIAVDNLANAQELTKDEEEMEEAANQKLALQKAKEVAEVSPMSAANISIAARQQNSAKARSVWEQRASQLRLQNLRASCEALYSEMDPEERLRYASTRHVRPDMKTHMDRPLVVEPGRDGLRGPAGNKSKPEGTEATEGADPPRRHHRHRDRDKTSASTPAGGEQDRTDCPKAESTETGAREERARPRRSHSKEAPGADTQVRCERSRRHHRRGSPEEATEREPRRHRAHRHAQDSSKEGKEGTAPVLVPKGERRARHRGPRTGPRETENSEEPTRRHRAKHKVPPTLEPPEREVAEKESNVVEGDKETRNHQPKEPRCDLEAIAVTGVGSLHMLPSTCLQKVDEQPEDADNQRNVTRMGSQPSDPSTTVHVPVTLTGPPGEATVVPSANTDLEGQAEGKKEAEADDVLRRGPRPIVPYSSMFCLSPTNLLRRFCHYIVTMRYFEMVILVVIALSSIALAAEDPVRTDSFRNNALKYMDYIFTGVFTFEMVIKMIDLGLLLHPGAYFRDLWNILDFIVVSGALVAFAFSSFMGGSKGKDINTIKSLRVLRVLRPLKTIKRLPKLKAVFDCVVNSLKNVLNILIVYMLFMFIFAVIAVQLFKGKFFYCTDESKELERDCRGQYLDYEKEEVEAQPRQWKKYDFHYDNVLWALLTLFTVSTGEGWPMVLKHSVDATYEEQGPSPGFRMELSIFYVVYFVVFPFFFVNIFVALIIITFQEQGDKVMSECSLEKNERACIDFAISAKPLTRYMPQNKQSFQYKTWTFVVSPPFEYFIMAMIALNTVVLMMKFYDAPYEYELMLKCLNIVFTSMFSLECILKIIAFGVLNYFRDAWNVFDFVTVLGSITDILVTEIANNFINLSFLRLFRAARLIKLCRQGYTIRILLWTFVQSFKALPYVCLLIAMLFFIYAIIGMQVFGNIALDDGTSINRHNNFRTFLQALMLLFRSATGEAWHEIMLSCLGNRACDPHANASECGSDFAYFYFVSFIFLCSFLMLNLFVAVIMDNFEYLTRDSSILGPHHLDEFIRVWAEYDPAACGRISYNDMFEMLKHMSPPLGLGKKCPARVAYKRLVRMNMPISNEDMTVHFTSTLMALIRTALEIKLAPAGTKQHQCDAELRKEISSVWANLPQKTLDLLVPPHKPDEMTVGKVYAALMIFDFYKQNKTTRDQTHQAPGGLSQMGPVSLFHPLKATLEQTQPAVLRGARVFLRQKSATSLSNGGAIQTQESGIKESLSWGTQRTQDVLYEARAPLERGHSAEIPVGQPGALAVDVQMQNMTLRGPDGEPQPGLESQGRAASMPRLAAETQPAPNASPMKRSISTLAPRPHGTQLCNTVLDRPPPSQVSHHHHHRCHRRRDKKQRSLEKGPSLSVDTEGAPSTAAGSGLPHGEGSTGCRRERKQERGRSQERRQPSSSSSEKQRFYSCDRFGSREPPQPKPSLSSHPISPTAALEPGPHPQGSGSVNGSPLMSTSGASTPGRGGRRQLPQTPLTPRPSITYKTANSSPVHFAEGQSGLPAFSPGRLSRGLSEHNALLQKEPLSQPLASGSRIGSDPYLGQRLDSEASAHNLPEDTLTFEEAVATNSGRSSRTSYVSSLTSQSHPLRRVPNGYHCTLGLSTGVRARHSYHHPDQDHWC
As to the kind of experiment: off-target screen panel. Conditions: read-out: Inhibition (%) at 1 μM. It is filed as binding.

The target of a further experiment is T3, Opiate δ1 (OP1, DOP) (Homo sapiens, UniProt P41143).
T3 construct: purchased Eurofins Panlabs Discovery Services (Taiwan)
T3 sequence (P41143 whole entry): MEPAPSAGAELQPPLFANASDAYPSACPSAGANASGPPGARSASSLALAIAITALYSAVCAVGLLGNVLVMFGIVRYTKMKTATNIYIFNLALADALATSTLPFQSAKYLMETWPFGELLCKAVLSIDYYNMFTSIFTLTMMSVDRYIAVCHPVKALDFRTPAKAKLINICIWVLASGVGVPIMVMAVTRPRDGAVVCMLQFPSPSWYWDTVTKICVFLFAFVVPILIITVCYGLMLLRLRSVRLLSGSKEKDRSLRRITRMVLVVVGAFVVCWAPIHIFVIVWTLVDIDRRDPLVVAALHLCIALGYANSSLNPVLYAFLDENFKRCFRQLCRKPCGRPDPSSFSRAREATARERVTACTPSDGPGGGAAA
As to the kind of experiment: off-target screen panel. In kind it is binding. Conditions: Human recombinant, [^3H]Naltrindole.

In experiment [2] the test system is PDE7. Nature of the experiment: In vitro autoradiography of monkey brain sections with [^11C]MTP38. In kind it is binding, rhesus monkeys. As to conditions: [^11C]MTP38 2 nM, unlabeled MTP38 10 μM. On the procedure:
as §1

Experiment [3] concerns the target T4, Serotonin (5-Hydroxytryptamine) 5-HT2B (Homo sapiens, UniProt P41595).
T4 construct: purchased Eurofins Panlabs Discovery Services (Taiwan)
As to the kind of experiment: off-target screen panel. Conditions: Human recombinant, [^3H]Lysergic acid diethylamide (LSD). In kind it is binding.

Experiment [4] addresses T5, Leukotriene, Cysteinyl CysLT1 (Homo sapiens, UniProt Q9Y271).
T5 construct: purchased Eurofins Panlabs Discovery Services (Taiwan)
Nature of the experiment: off-target screen panel. In kind it is binding. Conditions: Human recombinant, [^3H]LTD4.

T5 sequence (Q9Y271 whole entry): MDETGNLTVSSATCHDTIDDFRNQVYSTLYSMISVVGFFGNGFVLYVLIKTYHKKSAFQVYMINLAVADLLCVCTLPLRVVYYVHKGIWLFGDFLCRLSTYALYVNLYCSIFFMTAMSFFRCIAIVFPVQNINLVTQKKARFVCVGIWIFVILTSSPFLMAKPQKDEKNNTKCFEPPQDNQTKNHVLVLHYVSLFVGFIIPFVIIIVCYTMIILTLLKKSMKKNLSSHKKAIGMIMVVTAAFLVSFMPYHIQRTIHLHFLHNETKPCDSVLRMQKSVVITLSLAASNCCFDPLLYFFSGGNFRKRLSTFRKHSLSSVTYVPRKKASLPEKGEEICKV
T4 sequence (P41595 whole entry): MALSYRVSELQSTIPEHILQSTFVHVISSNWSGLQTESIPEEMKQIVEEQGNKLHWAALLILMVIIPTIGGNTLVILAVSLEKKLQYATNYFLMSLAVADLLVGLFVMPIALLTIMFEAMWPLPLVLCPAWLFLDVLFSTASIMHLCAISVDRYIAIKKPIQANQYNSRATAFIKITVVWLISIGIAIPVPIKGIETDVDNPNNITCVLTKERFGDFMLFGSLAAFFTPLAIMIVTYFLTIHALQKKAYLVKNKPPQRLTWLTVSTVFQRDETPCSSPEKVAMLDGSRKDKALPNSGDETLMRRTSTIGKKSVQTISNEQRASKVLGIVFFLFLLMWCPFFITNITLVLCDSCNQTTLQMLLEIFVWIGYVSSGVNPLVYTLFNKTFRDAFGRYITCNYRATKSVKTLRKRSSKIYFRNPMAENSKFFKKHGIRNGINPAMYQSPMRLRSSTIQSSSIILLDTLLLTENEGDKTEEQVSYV
T1 sequence (Q99720 whole entry): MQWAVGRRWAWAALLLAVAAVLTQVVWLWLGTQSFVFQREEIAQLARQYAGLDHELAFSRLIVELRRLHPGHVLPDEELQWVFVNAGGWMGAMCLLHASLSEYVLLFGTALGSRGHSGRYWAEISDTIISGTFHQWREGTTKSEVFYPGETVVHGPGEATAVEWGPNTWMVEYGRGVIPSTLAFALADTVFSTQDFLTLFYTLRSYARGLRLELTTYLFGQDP

On to `C[C@@H]1CC[C@H](C)N(c2nnc3c(N)ncc(C#N)n23)C1` (relative stereo) [MTP38, 8-amino-3-(2S*,5R*-dimethyl-1-piperidyl)-[1,2,4]triazolo[4,3-a]pyrazine-5-carbonitrile], for which the inhibition at 1 µM on Sigma σ1 is 6%; on Calcium Channel N-Type it was 1%; at Opiate δ1 (OP1, DOP), -4%; in experiment [3] it was -1%; in experiment [4] it was 4%. Moreover, the “effect of blocker on striatal radioactivity of [^11C]MTP38” value in the experiment with PDE7 [1] and with PDE7 [2] was “reduced the striatal radioactivity” throughout.

Values taken from article PMC8426238, “Synthesis and preclinical evaluation of [^11C]MTP38 as a novel PET ligand for phosphodiesterase 7 in the brain” (European Journal of Nuclear Medicine and Molecular Imaging, 2021).
